The results in this text go back to ChEMBL document CHEMBL1821647, “Synthesis and antioxygenic activities of seabuckthorn flavone-3-ols and analogs” (Bioorg Med Chem Lett, 2011).

The test relates to Radical scavenging activity. In words: Antioxidant activity assessed as DPPH free radical scavenging activity. The format is functional.

Take `O=c1c(O)c(-c2ccc(O)c(O)c2)oc2c(O[C@@H]3O[C@H](CO)[C@@H](O)[C@H](O)[C@H]3O)c(O)cc(O)c12`: the EC50 stood at 25.5 µg.

For the molecule `O=C1c2c(O)cc(O)cc2O[C@H](c2ccc(O)c(O)c2)[C@H]1O` [(+)-TAXIFOLIN], the EC50 amounted to 24 µg. The same measure for `COc1cc(C2Oc3cc(O)cc(O)c3C(=O)C2O)ccc1O` (centres undefined) [DIHYDROISORHAMNETIN]: above 100 µg; for `COc1ccc(C2Oc3cc(O)cc(O)c3C(=O)C2O)cc1` (centres undefined) [DIHYDROKAEMPFERIDE]: above 100 µg. As for `O=C1c2c(O)cc(O)cc2O[C@H](c2ccc(O)cc2)[C@H]1O` [DIHYDROKAEMPFEROL], the figure is above 100 µg; as for `O=c1oc2c(O)c(O)cc3c(=O)oc4c(O)c(O)cc1c4c23` [ELLAGIC ACID], 4.8 µg; as for `O=C(O)c1cc(O)c(O)c(O)c1` [GALLIC ACID], 3.8 µg. As for `O=c1c(O)c(-c2ccc(O)c(O)c2)oc2c(O)c(O)cc(O)c12` [GOSSYPETIN], the EC50 is 5.5 µg.

Take `O=C(O)[C@H]1O[C@@H](Oc2c(O)cc(O)c3c(=O)c(O)c(-c4ccc(O)c(O)c4)oc23)[C@H](O)[C@@H](O)[C@@H]1O` [HIBIFOLIN]: the EC50 came out at 16 µg. The same measure for `COc1cc(-c2oc3cc(O)cc(O)c3c(=O)c2O)ccc1O` [ISORHAMNETIN]: 26.2 µg. The same measure for `COc1ccc(-c2oc3cc(O)cc(O)c3c(=O)c2O)cc1` [KAEMPFERIDE]: 97 µg; for `O=c1c(O)c(-c2ccc(O)cc2)oc2cc(O)cc(O)c12` [KAEMPFEROL]: 14.6 µg. `COc1c(O)cc2oc(-c3ccc(O)c(O)c3)c(O)c(=O)c2c1O` [PATULETIN]: the EC50 came to 10.6 µg. As for `O=c1c(O)c(-c2ccc(O)c(O)c2)oc2cc(O)c(O)c(O)c12` [QUERCETAGETIN], the figure is 10.5 µg; as for `O=c1c(O)c(-c2ccc(O)c(O)c2)oc2cc(O)cc(O)c12` [QUERCETIN], 14.4 µg; as for `C[C@@H]1O[C@@H](OC[C@H]2O[C@@H](Oc3c(-c4ccc(O)c(O)c4)oc4cc(O)cc(O)c4c3=O)[C@H](O)[C@@H](O)[C@@H]2O)[C@H](O)[C@H](O)[C@H]1O` [RUTIN], 15.5 µg. The same measure for `COc1ccc(C2Oc3cc(O)cc(O)c3C(=O)C2O)cc1O` (centres undefined) [TAMARAXETIN]: above 100 µg; for `COc1ccc(-c2oc3cc(O)cc(O)c3c(=O)c2O)cc1O` [TAMARIXETIN]: above 100 µg; for `Cc1c(C)c2c(c(C)c1O)CCC(C)(C(=O)O)O2` (centres undefined) [TROLOX]: 12.5 µg.
